In patent publication US20160369115A1, “POLARIZING PLATE COMPOSITION, POLARIZING PLATE PROTECTIVE FILM, POLARIZER, POLARIZING PLATE, LIQUID CRYSTAL DISPLAY DEVICE, AND COMPOUND USED IN THE LIQUID CRYSTAL DISPLAY DEVICE” (FUJIFILM Corporation, priority 2014, published 2016):

test: Solubility of additive in water; type: physicochemical; details: amount of the additive dissolving in 100 ml of pure water at 25° C.
Protocol: The amount of the additive dissolving in 100 ml of pure water at 25° C. was measured and evaluated according to the following criteria.

SMILES | Solubility in water
COC(=O)Oc1c(Cc2ccc(S(=O)(=O)[O-])cc2S(=O)(=O)[O-])c(=O)n(-c2ccccc2)c(=O)n1Cc1ccccc1.[Na+].[Na+] [Example compound B] | A (Equal to or greater than 5 g)
COC(=O)Oc1[nH]c(=O)n(CCCS(=O)(=O)[O-])c(=O)c1Cc1ccc(C=O)cc1.[Na+] [Example compound AAC] | A (Equal to or greater than 5 g)
[Cl-].[Cl-].[Zn+2] [ZnCl2, reference compound] | A (Equal to or greater than 5 g)
COC(=O)Oc1[nH]c(=O)n(Cc2ccc(B(O)O)cc2)c(=O)c1Cc1ccc(S(=O)(=O)[O-])cc1S(=O)(=O)[O-].[Na+].[Na+] [Example compound AAL] | A (Equal to or greater than 5 g)
COC(=O)Oc1[nH]c(=O)n(Cc2ccc(F)c(F)c2)c(=O)c1Cc1ccc(S(=O)(=O)[O-])cc1S(=O)(=O)[O-].[Na+].[Na+] [Example compound AAS] | A (Equal to or greater than 5 g)
CCO[Si](CCCNC(=O)OCCn1c(=O)[nH]c(OC(=O)OC)c(Cc2ccc(S(=O)(=O)[O-])cc2S(=O)(=O)[O-])c1=O)(OCC)OCC.[Na+].[Na+] [Example compound AAP] | A (Equal to or greater than 5 g)
COC(=O)Oc1c(Cc2ccccc2)c(=O)n(CS(=O)(=O)[O-])n1C.[Na+] [Example compound AH] | A (Equal to or greater than 5 g)
COC(=O)Cc1c(Cc2ccc(S(=O)(=O)[O-])cc2S(=O)(=O)[O-])c(=O)[nH]c2ccccc12.[Na+].[Na+] [Example compound AJ] | A (Equal to or greater than 5 g)
COC(=O)Oc1[nH]c(=O)n(Cc2ccc(S(=O)(=O)[O-])cc2)c(=O)c1C=O.[Na+] [Example compound AAV] | A (Equal to or greater than 5 g)
O=C1NC(=O)N(Cc2ccccc2)C(=O)C1c1ccccc1 (stereo not drawn) [Organic acid 1, reference compound] | C (Less than 1 g.)
Nc1c(F)c(F)c(C(=O)O)c(F)c1F [Organic acid 2, reference compound] | B (Equal to or greater than 1 g and less than 5 g)
O=C(Oc1c(Cc2ccccc2S(=O)(=O)[O-])c(=O)n(-c2ccccc2)c(=O)n1-c1ccccc1)OC1c2ccccc2-c2ccccc21.[Na+] [Example compound H] | B (Equal to or greater than 1 g and less than 5 g)
CCOC(=O)Oc1c(Cc2ccccc2S(=O)(=O)[O-])c(=O)n(-c2ccccc2)c(=O)n1-c1ccccc1.[Na+] [Example compound D] | A (Equal to or greater than 5 g)
CC(C)[Si](Oc1c(Cc2ccccc2)c(=O)n(CS(=O)(=O)[O-])c(=O)n1C)(C(C)C)C(C)C.[Na+] [Example compound L] | A (Equal to or greater than 5 g)
O=C([O-])c1ccc(Cc2c(OCOCc3ccccc3)n(-c3ccccc3)c(=O)n(-c3ccccc3)c2=O)cc1.[Na+] [Example compound O] | B (Equal to or greater than 1 g and less than 5 g)
